≈ marks a conversion by molar mass, not a printed value. Where “and” joins values, the source holds several entries; their conditions need not be identical. Identical values can stand only once.
Assays:
S. aureus (MDR00231) [1] = assay: Agar well-diffusion antimicrobial sensitivity assay; assay type: cell-based, Staphylococcus aureus; details: Staphylococcus aureus, read-out: Inhibition Zone (IZ)
[2] = system: S. epidermidis (MDR00223); assay: as above; assay type: cell-based, Staphylococcus epidermidis; details: Staphylococcus epidermidis, read-out: Inhibition Zone (IZ)
E. coli (MDR00501) [3] = assay: as above; assay type: cell-based; details: Escherichia coli, read-out: Inhibition Zone (IZ)
[4] = system: C. albicans100 (MDR00100); assay: as above; assay type: cell-based, Candida albicans; details: Candida albicans, read-out: Inhibition Zone (IZ)
[5] = system: C. albicans200 (MDR00200); assay: as above; assay type: cell-based, Candida albicans; details: Candida albicans, read-out: Inhibition Zone (IZ)
S. aureus (MDR00231) [6] = assay: MIC and MBC by broth microdilution; assay type: cell-based, Staphylococcus aureus
[7] = system: S. epidermidis (MDR00223); assay: MIC and MBC by broth microdilution; assay type: cell-based, Staphylococcus epidermidis
B. subtilis (MDR00423) = assay: MIC and MBC by broth microdilution; assay type: cell-based
E. coli (MDR00501) [8] = assay: MIC and MBC by broth microdilution; assay type: cell-based
A. baumannii (MDR00521) = assay: MIC and MBC by broth microdilution; assay type: cell-based
K. pneumoniae (MDR00244) = assay: MIC and MBC by broth microdilution; assay type: cell-based; details: ratio in parentheses
[9] = system: C. albicans100 (MDR00100); assay: MIC and MFC by broth microdilution; assay type: cell-based, Candida albicans
[10] = system: C. albicans200 (MDR00200); assay: MIC and MFC by broth microdilution; assay type: cell-based, Candida albicans
S. aureus biofilm = assay: Staphylococcus biofilm mass reduction; assay type: cell-based; details: at their MIC
S. epidermidis biofilm = assay: Staphylococcus biofilm mass reduction; assay type: cell-based; details: at their MIC
S. aureus [11] = assay: Single-step resistance selection; assay type: cell-based, Staphylococcus aureus; details: 4 × MIC, 48 h
S. epidermidis [12] = assay: Single-step resistance selection; assay type: cell-based, Staphylococcus epidermidis; details: 4 × MIC, 48 h
B. subtilis [13] = assay: Single-step resistance selection; assay type: cell-based; details: 4 × MIC, 48 h
E. coli [14] = assay: Single-step resistance selection; assay type: cell-based; details: 4 × MIC, 48 h
A. baumannii [15] = assay: Single-step resistance selection; assay type: cell-based; details: 4 × MIC, 48 h
K. pneumoniae [16] = assay: Single-step resistance selection; assay type: cell-based; details: 4 × MIC, 48 h
C. albicans100 [17] = assay: Single-step resistance selection; assay type: cell-based, Candida albicans; details: 4 × MIC, 48 h
C. albicans200 [18] = assay: Single-step resistance selection; assay type: cell-based, Candida albicans; details: 4 × MIC, 48 h
S. aureus [19] = assay: Checkerboard combination assay with Ciprofloxacin; assay type: cell-based, Staphylococcus aureus
S. epidermidis [20] = assay: Checkerboard combination assay with Ciprofloxacin; assay type: cell-based, Staphylococcus epidermidis
B. subtilis [21] = assay: Checkerboard combination assay with Ciprofloxacin; assay type: cell-based
E. coli [22] = assay: Checkerboard combination assay with Ciprofloxacin; assay type: cell-based
A. baumannii [23] = assay: Checkerboard combination assay with Ciprofloxacin; assay type: cell-based
K. pneumoniae [24] = assay: Checkerboard combination assay with Ciprofloxacin; assay type: cell-based
C. albicans100 [25] = assay: Checkerboard combination assay with Ketoconazole; assay type: cell-based, Candida albicans
C. albicans200 [26] = assay: Checkerboard combination assay with Ketoconazole; assay type: cell-based, Candida albicans
RBCs = assay: Hemolytic assay; assay type: cell-based; details: human RBCs; compounds 1.0 mg/mL; Triton X-100 0.1% v/v; 37 °C, 35 min
E. coli DNA gyrase = E. coli DNA gyrase (Escherichia coli, UniProt P0AES4+P0AES6); assay: DNA gyrase inhibition; assay type: biochemical
E. coli DNA gyrase, sequence (P0AES4 whole entry, one chain of several): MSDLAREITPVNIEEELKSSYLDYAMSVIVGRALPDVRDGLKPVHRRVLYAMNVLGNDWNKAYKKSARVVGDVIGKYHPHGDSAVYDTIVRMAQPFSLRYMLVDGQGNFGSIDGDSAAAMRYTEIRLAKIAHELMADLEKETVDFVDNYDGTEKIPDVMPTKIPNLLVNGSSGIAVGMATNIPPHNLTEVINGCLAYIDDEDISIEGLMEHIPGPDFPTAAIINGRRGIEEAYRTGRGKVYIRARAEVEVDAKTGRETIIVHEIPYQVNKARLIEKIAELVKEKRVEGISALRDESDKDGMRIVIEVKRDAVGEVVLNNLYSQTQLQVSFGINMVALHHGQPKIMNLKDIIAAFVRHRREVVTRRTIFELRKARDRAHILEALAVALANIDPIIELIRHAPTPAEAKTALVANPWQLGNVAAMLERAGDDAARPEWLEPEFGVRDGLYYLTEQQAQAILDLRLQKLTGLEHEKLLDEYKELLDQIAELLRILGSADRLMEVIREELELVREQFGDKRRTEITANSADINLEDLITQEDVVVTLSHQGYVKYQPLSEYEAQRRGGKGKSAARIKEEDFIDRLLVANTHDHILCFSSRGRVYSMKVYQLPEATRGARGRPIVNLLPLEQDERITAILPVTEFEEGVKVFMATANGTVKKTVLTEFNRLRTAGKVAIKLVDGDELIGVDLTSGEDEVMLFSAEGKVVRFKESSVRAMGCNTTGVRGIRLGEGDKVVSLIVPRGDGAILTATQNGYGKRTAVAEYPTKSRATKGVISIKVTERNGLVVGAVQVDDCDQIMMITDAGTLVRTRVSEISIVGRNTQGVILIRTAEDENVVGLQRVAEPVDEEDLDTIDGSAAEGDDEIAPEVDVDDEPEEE

[27] = target: T1, dihydrofolate reductase (DHFR) (Homo sapiens, UniProt P00374); assay: DHFR inhibition; assay type: biochemical
T1 sequence (P00374 1-187): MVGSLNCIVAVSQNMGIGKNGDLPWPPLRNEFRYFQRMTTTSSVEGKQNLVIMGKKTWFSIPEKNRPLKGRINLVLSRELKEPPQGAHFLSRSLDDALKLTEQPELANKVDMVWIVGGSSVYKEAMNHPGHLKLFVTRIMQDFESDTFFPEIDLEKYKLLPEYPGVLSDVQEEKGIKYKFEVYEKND

[28] = In vitro cytotoxicity on normal cell line; assay type: cell-based, mouse; details: mouse, BNL normal liver cells
[29] = system: BNL: mouse normal liver cells; assay: In vitro cytotoxicity on normal cell line; assay type: cell-based
[30] = In vitro cytotoxicity on normal cell line; assay type: cell-based, green monkey; details: green monkey, Vero kidney cells
[31] = system: Vero: green monkey kidney; assay: In vitro cytotoxicity on normal cell line; assay type: cell-based
[32] = In vitro cytotoxicity on normal cell line; assay type: cell-based, rat; details: rat, H9C2 heart/myocardium cells
[33] = system: H9C2: rat heart/myocardium; assay: In vitro cytotoxicity on normal cell line; assay type: cell-based

## N#CC(=Cc1cn(-c2ccccc2)nc1-c1ccccc1)C1=NC(=O)CS1 [Compound 4a, 3-(1,3-Diphenyl-1H-pyrazol-4-yl)-2-(4-oxo-4,5-dihydrothiazol-2-yl)acrylonitrile]
S. aureus (MDR00231) [1]
  zone of inhibition at 100000 µg/mL: 31 ± 0.18 mm
[2]
  zone of inhibition at 100000 µg/mL: 28 ± 0.13 mm
E. coli (MDR00501) [3]
  zone of inhibition at 100000 µg/mL: 26 ± 0.33 mm
[4]
  zone of inhibition at 100000 µg/mL: 29 ± 0.23 mm
[5]
  zone of inhibition at 100000 µg/mL: 31 ± 0.22 mm
S. aureus (MDR00231) [6]; S. aureus, ratio in parentheses
  MBC/MIC: 0.5
S. aureus (MDR00231) [6]; Staphylococcus aureus, read-out: MIC (mean ± SEM), S. aureus, broth microdilution
  MIC: 0.43 ± 0.4 µg/mL (≈ 1.16 µM)
[7]; S. epidermidis, ratio in parentheses
  MBC/MIC: 1
[7]; Staphylococcus epidermidis, read-out: MIC (mean ± SEM), S. epidermidis, broth microdilution
  MIC: 0.48 ± 0.2 µg/mL (≈ 1.3 µM)
B. subtilis (MDR00423); B. subtilis, ratio in parentheses
  MBC/MIC: 0.5
B. subtilis (MDR00423); Bacillus subtilis, read-out: MIC (mean ± SEM), B. subtilis, broth microdilution
  MIC: 0.45 ± 0.5 µg/mL (≈ 1.21 µM)
E. coli (MDR00501) [8]; E. coli, broth microdilution
  MIC (mean ± SEM): 0.45 ± 0.2 µg/mL (≈ 1.21 µM)
E. coli (MDR00501) [8]; E. coli, ratio in parentheses
  MBC/MIC: 0.5
E. coli (MDR00501) [8]; Escherichia coli, read-out: MIC (mean ± SEM), E. coli, broth microdilution
  MIC: 0.45 µg/mL (≈ 1.21 µM)
A. baumannii (MDR00521); broth microdilution
  MIC (mean ± SEM): 0.44 ± 0.3 µg/mL (≈ 1.19 µM)
A. baumannii (MDR00521); ratio in parentheses
  MBC/MIC: 1
K. pneumoniae (MDR00244)
  MBC/MIC: 0.5
[9]; C. albicans100, broth microdilution
  MIC (mean ± SEM): 0.45 ± 0.3 µg/mL (≈ 1.21 µM)
[9]; C. albicans100, ratio in parentheses
  MFC/MIC: 1
[9]; Candida albicans, read-out: MIC (mean ± SEM), C. albicans100, broth microdilution
  MIC: 0.45 µg/mL (≈ 1.21 µM)
[10]; C. albicans200, broth microdilution
  MIC (mean ± SEM): 0.22 ± 0.2 µg/mL (≈ 0.594 µM)
[10]; C. albicans200, ratio in parentheses
  MFC/MIC: 0.5
[10]; Candida albicans, read-out: MIC (mean ± SEM), C. albicans200, broth microdilution
  MIC: 0.22 µg/mL (≈ 0.594 µM)
S. aureus biofilm
  reduction of biofilm formation: 74.3%
S. epidermidis biofilm
  reduction of biofilm formation: 64.8%
S. aureus [11]
  Single-step resistance frequency (mutation frequency): 1.61 × 10^–7
S. epidermidis [12]
  Single-step resistance frequency (mutation frequency): 2.43 × 10^–7
B. subtilis [13]
  Single-step resistance frequency (mutation frequency): 2.20 × 10^–8
E. coli [14]
  Single-step resistance frequency (mutation frequency): 1.20 × 10^–9
A. baumannii [15]
  Single-step resistance frequency (mutation frequency): 1.00 × 10^–9
K. pneumoniae [16]
  Single-step resistance frequency (mutation frequency): 1.54 × 10^–9
C. albicans100 [17]
  Single-step resistance frequency (mutation frequency): 1.40 × 10^–8
C. albicans200 [18]
  Single-step resistance frequency (mutation frequency): 1.58 × 10^–7
S. aureus [19]
  combination effect: S (S: synergism)
  fractional inhibitory concentration index (FICI): 0.25
S. epidermidis [20]
  combination effect: S (S: synergism)
  fractional inhibitory concentration index (FICI): 0.5
B. subtilis [21]
  combination effect: S (S: synergism)
  fractional inhibitory concentration index (FICI): 0.5
E. coli [22]
  combination effect: S (S: synergism)
  fractional inhibitory concentration index (FICI): 0.25
A. baumannii [23]
  combination effect: S (S: synergism)
  fractional inhibitory concentration index (FICI): 0.25
K. pneumoniae [24]
  combination effect: S (S: synergism)
  fractional inhibitory concentration index (FICI): 0.5
C. albicans100 [25]
  combination effect: S (S: synergism)
  fractional inhibitory concentration index (FICI): 0.5
C. albicans200 [26]
  combination effect: S (S: synergism)
  fractional inhibitory concentration index (FICI): 0.5
RBCs
  %lysis of RBCs: 7.55% and 7.55 ± 0.63%
E. coli DNA gyrase
  IC50: 18.2 ± 0.67 µM
[27]
  IC50: 0.98 ± 0.11 µM
[28]
  IC50 at 72 h: 99.4 ± 1.04 µM
[29]; IC50 of BNL / IC50 of DHFR
  Selectivity index against DHFR: 101.44
[29]; IC50 of BNL / IC50 of DNA gyrase
  Selectivity index against DNA gyrase: 5.44
[30]
  IC50 at 72 h: 86.9 ± 0.97 µM
[31]; IC50 of Vero / IC50 of DHFR
  Selectivity index against DHFR: 88.70
[31]; IC50 of Vero / IC50 of DNA gyrase
  Selectivity index against DNA gyrase: 4.76
[32]
  IC50 at 72 h: 103 ± 1.5 µM
[33]; IC50 of H9C2 / IC50 of DHFR
  Selectivity index against DHFR: 105.40
[33]; IC50 of H9C2 / IC50 of DNA gyrase
  Selectivity index against DNA gyrase: 5.66

— publication PMC8851638 (ACS Omega, 2022)
